Experiments:
liver cancer cells = conditions: cited from earlier work
[1] = tested on: recurrence of hepatocellular carcinoma; experiment: Clinical test of recurrence of hepatocellular carcinoma after radical treatment in HCV-positive subjects (dynamic CT every 12 weeks, log-rank test); format: in vivo, human; conditions: for 50% Recurrence free interval / 75% Recurrence free interval: peroral, 96 weeks, in combination with branched-chain amino acid preparation
Method: Peretinoin produced through a known method was used as an acyclic retinoid. A commercial preparation containing isoleucine, leucine, and valine in combination was used as a branched-chain amino acid.
Forty-six subjects (age: 49 to 80) were tested. […] As a preparation containing a branched-chain amino acid, Aminoleban (registered trademark) EN combination powder or Livact (registered trademark) combination granules were administered in a specific amount during the test period. The daily dose of Aminoleban was 150 g (the daily dose including L-isoleucine (5.7675 g), L-leucine (6.111 g), and L-valine (4.806 g)), and that of Livact was 12.45 g (the daily dose including L-isoleucine (2.856 g), L-leucine (5.712 g), and L-valine (3.432 g)). As an acyclic retinoid, peretionin, was administered to the subjects in combination with the branched-chain amino acid. The subjects were divided into the following groups:
1: peretinoin 600 mg (daily dose, the same applies hereinafter) combination group: 18 subjects (male: 11, female: 7),
2: peretinoin 300 mg combination group: 15 subjects (male: 9, female: 6), and
3: branched-chain amino acid sole administration group: 13 subjects (male: 8, female: 5).
The daily dose of peretinoin was divided into two portions. On each day during 96 weeks after start of the test, peretinoin was perorally administered after meal.
Radical curing and recurrence of hepatocellular carcinoma were confirmed through dynamic CT measured every 12 weeks after the start of the test. The combinatory effect on cumulative recurrence free rate was evaluated through the log-rank test.

[2] = tested on: recurrence of hepatocellular carcinoma; conditions: clinical study, cited from earlier work
[3] = peretinoin 300 mg daily, 15 HCV-positive subjects
[4] = peretinoin 600 mg daily, 18 HCV-positive subjects

Row | SMILES | apoptosis of liver cancer cells (liver cancer cells) | 50% Recurrence free interval [1, 3] [days] | 75% Recurrence free interval [1, 3] [days] | extension of 75% recurrence free interval compared with the sole branched-chain amino acid administration group ([1]; peretinoin 300 mg in combination with branched-chain amino acid) [days] | cumulative recurrence free rate (FIG. 1) ([1]; peretinoin 600 mg and 300 mg combination groups with branched-chain amino acid) | cumulative recurrence free rate compared with the sole branched-chain amino acid administration group ([1]; peretinoin 600 mg combination group, Log-rank test) | 50% Recurrence free interval [1, 4] [days] | 75% Recurrence free interval [1, 4] [days] | extension of 75% recurrence free interval compared with the sole branched-chain amino acid administration group ([1]; peretinoin 600 mg in combination with branched-chain amino acid) [days] | extension of 50% recurrence free interval compared with the sole branched-chain amino acid administration group ([1]; peretinoin and branched-chain amino acid combination groups (600 mg and 300 mg)) | hepatocellular carcinoma recurrence rate ([1]; peretinoin in combination with branched-chain amino acid) | liver disorders / adverse side effects [2] | recurrence of hepatocellular carcinoma after radical treatment ([2]; long-term administration for one year)
1 | CC(C)=CCC/C(C)=C/CC/C(C)=C/CC/C(C)=C/C(=O)O [geranylgeranoic acid] | induce apoptosis | – | – | – | – | – | – | – | – | – | – | – | –
2 | CC(C)=CCC/C(C)=C/CC/C(C)=C/C=C/C(C)=C/C(=O)O [peretinoin, (2E,4E,6E,10E)-3,7,11,15-tetramethylhexadeca-2,4,6,10,14-pentaenoic acid] | – | >730 | 415 | 227 | remarkable improvement | significantly improved | >730 | 705 | 517 | more than double | reduce | substantially no liver disorders | significantly inhibited

Source: patent US8853273B2, “Medicinal agent for prevention and/or treatment of hepatocellular carcinoma” (Kowa Co., Ltd., priority 2010, dated 2014)
